“Also recorded” adds a separate entry of the source. Values belong to the compound of their own block, whether it stands above or below them.
Tests used:
LAR [1] = biological target: T1, LAR (Homo sapiens, UniProt P10586); assay: Standard phosphatase assay (DiFMUP) with LAR, pH 6.5, 22° C.
T1 sequence (P10586 1352-1607): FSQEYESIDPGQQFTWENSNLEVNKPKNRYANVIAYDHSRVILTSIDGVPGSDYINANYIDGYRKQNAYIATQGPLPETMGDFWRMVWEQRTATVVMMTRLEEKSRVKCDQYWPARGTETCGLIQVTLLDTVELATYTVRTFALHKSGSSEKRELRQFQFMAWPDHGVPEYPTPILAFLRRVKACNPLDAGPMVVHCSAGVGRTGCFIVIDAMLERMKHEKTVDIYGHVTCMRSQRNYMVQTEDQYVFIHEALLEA
Description: Enzyme activity assays are performed in black 96-well plates containing a total volume of 100 μL in each well. […] Prior to each assay, the enzyme is activated by incubating in Bis-Tris buffer (50 mM Bis-Tris pH 6.5, 100 mM NaCl, 0.01% Brij 35, 1 mM EDTA) with 5 μL of 100 mM TCEP on ice for 30 min. Buffer, enzyme, and either a DMSO control or the compound of interest are added to each well of the 96-well plate and incubated for 30 min at room temperature. After this 30-min preincubation period, the substrate DiFMUP is added to initiate the reaction. The observed fluorescence resulting from the hydrolysis of DiFMUP is measured every 60 s for 30 min in a SpectraMax M5 plate reader with excitation and emission wavelengths of 350 and 455 nm, respectively.
Assays to investigate time-dependent inhibition are performed as described in the initial inhibitory screen assays section with slight modifications. Buffer and enzyme are initially added to each well, followed by sequential addition of inhibitor starting from the longest incubation time to the shortest.
Assays to determine kobs values were performed as described in the Initial inhibitory screen assays section above with slight modification. Buffer, inhibitor and DMSO were added to each well as appropriate. Enzyme was then added to each well and allowed to incubate for the desired time, followed by addition of DiFMUP to initiate the assay.

PTPRδ [2] = biological target: T2, PTPRδ (Homo sapiens, UniProt P23468); assay: Preliminary LAR-PTP inhibition assay at pH 8; type: biochemical; details: pH 8, 100 μM compound, 30 min preincubation
T2 sequence (P23468 1357-1612): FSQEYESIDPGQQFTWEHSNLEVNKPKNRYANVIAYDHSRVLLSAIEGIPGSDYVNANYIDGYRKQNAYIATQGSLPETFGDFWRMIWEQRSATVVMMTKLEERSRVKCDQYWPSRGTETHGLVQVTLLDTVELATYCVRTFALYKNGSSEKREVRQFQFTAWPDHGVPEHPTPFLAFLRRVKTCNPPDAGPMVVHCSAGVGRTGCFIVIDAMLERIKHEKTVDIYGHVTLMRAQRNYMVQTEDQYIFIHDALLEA
Description: The illudalogs of this invention show inhibitory activity against LAR-PTPs in preliminary assays at pH 6.5 and pH 8 (FIG. 9). In all assays, 100 μM of compound was incubated with enzyme for 30 min prior to the assay. […] This apparent pH-dependence is consistent with the postulated two-stage binding mechanism and will be investigated further. There is some variation in potency and selectivity across the analogues, although these preliminary assays are not precise enough to support quantitative conclusions.

PTPRδ [3] = biological target: T2, PTPRδ; assay: PTP panel inhibition, PTPRδ; type: biochemical; design: We maintain a library of PTP catalytic domains
[4] = system: LAR-PTP subfamily (LAR, PTPRσ, and PTPR^δ); assay: PTP panel screen, LAR-PTP subfamily; type: biochemical, human; details: panel also with PTP1B, SHP2, and CD45
Description: (§1) We screen illudalogs against a panel of PTPs including PTPRD, as illustrated in FIG. 16. […] Typical experimental conditions are 5-10 nM enzyme, 1-10 μM DiFMUP, and 250 nM inhibitor at 37° C.

SHP2 = biological target: T3, SHP2 (Homo sapiens, UniProt Q06124); assay: PTP panel screen, SHP2; type: biochemical; details: 250 nM
T3 construct: We maintain a library of PTP catalytic domains
T3 sequence (Q06124 247-517): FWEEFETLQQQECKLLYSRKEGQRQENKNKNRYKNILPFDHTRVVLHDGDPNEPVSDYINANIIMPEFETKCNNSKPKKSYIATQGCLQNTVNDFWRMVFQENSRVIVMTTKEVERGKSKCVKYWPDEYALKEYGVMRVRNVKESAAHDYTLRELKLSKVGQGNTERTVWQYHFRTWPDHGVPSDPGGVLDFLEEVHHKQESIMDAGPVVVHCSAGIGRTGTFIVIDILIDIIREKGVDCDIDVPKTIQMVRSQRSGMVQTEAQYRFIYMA
Description: as §1

PTPRD [5] = biological target: T4, PTPRD (Homo sapiens, UniProt P23468); assay: PTPRD inhibitor screen and IC50 at pH 7.5 and 37° C.; type: biochemical; details: for PTPRD inhibition in preliminary screening assays: 1 μM and 250 nM; for IC50: pH 7.5 and 37° C.
T4 construct: We maintain a library of PTP catalytic domains
T4 sequence (P23468 1357-1612): T2 sequence (P23468 1357-1612)

PTPRD [6] = biological target: T4, PTPRD; assay: as above; type: biochemical; details: 1 μM
LAR [7] = biological target: T1, LAR; assay: Reversibility of LAR inhibition by dialysis; type: biochemical; design: We maintain a library of PTP catalytic domains; details: preliminary experiments
CD45 = biological target: T5, CD45 (Homo sapiens, UniProt P08575); assay: PTP panel inhibition, CD45; type: biochemical
T5 construct: We maintain a library of PTP catalytic domains
T5 sequence (P08575 653-912): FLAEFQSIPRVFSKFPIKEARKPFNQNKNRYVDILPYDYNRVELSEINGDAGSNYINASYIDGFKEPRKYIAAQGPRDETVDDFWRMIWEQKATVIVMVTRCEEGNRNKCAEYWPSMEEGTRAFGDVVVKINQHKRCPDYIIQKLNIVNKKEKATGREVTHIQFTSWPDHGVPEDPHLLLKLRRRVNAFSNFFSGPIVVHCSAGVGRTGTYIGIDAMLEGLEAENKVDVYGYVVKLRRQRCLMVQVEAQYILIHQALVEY

[8] = Storage stability as pure substance or in DMSO; type: physicochemical; details: room temperature for six months
Source text: As discussed above, our new synthetic approach focuses on convergent benzannulation, followed by conversion to the ortho-formyl hydroxy-lactone pharmacophore (FIG. 1). […] LiAlH4, then 6M HCl, ca. 40-70% yields of IAn compounds, which generally precipitate from aqueous acid as white crystalline solids. Intermediates 5 can be isolated for derivatization prior to acidic hydrolysis or advanced directly to the IAn compounds. Optimization is proposed and in progress. Currently, IA1 is produced in ca. 27% yield over 4 steps from 3. We have prepared >35 g of ester 2; ≥100 mg of IA1 and IA3; and ≥10 mg each of the other illudalog compounds of this invention. […] For IA1, we access β-keto amide 1a in two steps from known enal 3.^61 Other β-keto amides 1 provide parallel access to diverse illudalog cores (e.g., 1b→IA3, FIG. 1, bottom). We prepare β-keto ester 2^62 on multigram-scale using CDI-mediated decarboxylative coupling;^63 we have >35 g of 2 in stock. β-Keto ester 2 is the common building block for illudalogs prepared thus far; it comprises functional precursors to the hydroxy-lactone. The benzannulation is adapted from a known naphthol annulation.^64 The final reduction and hydrolysis sequence can be executed as a one-pot operation or with isolation of intermediate 5. Presumably, the deprotonated phenol directs reduction of the ortho-amide over the para-ester. […]

selectivity for LAR compared to other PTPs (LAR [1]; 100 μM inhibitor, pH 6.5, 22 degrees Centigrade): more selective for LAR
inhibitory activity in standard phosphatase assays (LAR [1]; LAR, standard assays): inhibit
initial thermodynamic binding affinity K1 (LAR [1]; LAR, standard assays): too weak
kinetic covalent ligation rate kinact (LAR [1]; LAR, standard assays): too fast
IC50 (LAR [1]; read-out: IC50 (LAR), standard assays, pH 6.5 and 22° C.): 55000 ± 6000 nM
inhibition of PTPRδ activity (PTPRδ [3]): inhibit
SMILES: COc1c(C=O)c2c(c3c1CC(C)(C)C3)C(=O)OC(O)C2 (stereo not drawn) [IA1-6OMe]
potency and selectivity for PTPR^δ over other LAR-PTPs (PTPRδ [2]): potent and selective for PTPR^δ over LAR and PTPR^δ

PTPRD inhibition in preliminary screening assays (PTPRD [5]): potent PTPRD inhibitors
SMILES: O=Cc1c2c(c3ccc(Br)cc3c1O)C(=O)OC(O)C2 (stereo not drawn) [IA3-8Br]

PTPRD inhibition in preliminary screening assays (PTPRD [5]): potent PTPRD inhibitors
SMILES: C#Cc1ccc2c3c(c(C=O)c(O)c2c1)CC(O)OC3=O (stereo not drawn) [IA3-8C2H]

PTPRD inhibitory activity on rescreening (PTPRD [6]): lower inhibitory activity
SMILES: CCOc1c(C=O)c2c(c3ccccc13)C(=O)OC(O)C2 (stereo not drawn) [IA3-6OEt]

PTPRD inhibitory activity on rescreening (PTPRD [6]): lower inhibitory activity
SMILES: COc1c(C=O)c2c(c3ccccc13)C(=O)OC(O)C2 (stereo not drawn) [IA3-6OMe]

More lines, now with the values behind:

SMILES: CC1(C)CCc2c(c(O)c(C=O)c3c2C(=O)OC(O)C3)C1 (stereo not drawn) [IA2-8Me2]
potency and selectivity for the LAR subfamily ([4]; listed as 15): most potent and is selective for the LAR subfamily
inhibition at 0.25 µM (SHP2): > 50%

SMILES: CC1(C)Cc2c(O)c(C=O)c3c(c2C1)C(=O)OC(O)C3 (stereo not drawn) [illudalic acid, reference compound]
recovery of enzyme activity by dialysis (LAR [7]): enzyme activity cannot be recovered by dialysis
IC50 (PTPRD [5]): 90 ± 14 nM
inhibitory activity in standard phosphatase assays (LAR [1]; LAR, standard assays): active; also recorded: inhibit
inhibition of CD45 activity (CD45): inhibited
stability of NMR sample in DMSO [8]: unchanged
inhibition of PTPRδ activity (PTPRδ [3]): inhibit

SMILES: CC1(C)CCc2c(O)c(C=O)c3c(c2C1)C(=O)OC(O)C3 (stereo not drawn) [IA2-9Me2]
potency and selectivity for the LAR subfamily ([4]; listed as 16): different selectivity profile within the LAR subfamily

SMILES: O=Cc1c2c(c3cc(F)c(F)cc3c1O)C(=O)OC(O)C2 (stereo not drawn) [IA3-89F]
IC50 (PTPRD [5]): 51 ± 5 nM

— patent US20230265065A1 (WEST VIRGINIA UNIVERSITY BOARD OF GOVERNORS ON BEHALF OF …, priority 2020, published 2023)
